Columns and labels:
[1] = system: human ALAS1 target site; experiment: In vivo base editing with LNP carrying adenine base editor mRNA and sgRNA, targeted deep sequencing; conditions: 3.0 mg/kg dose IV; NBSGW mice engrafted with human CD34+ cells; four to six days post-dose
Method: Exemplary LNP preparations were selected to determine each preparation's ability to perform base editing in a NBSGW mouse model as described herein.
Lipid nanoparticle components were dissolved in 100% ethanol at specified lipid component molar ratios. mRNA encoding an adenine base editor and a chemically-modified sgRNA were dissolved at a mass ratio of 1:1 in 10 mM citrate, pH 3.0, resulting in a concentration of NA cargo of approximately 0.2 mg/mL.
LNP preparations were formulated with molar ratios of 50% Ionizable Lipid: 38.5% Cholesterol: 1.5% PEG2000-DMG: 10% DSPC total lipid to NA mass ratio of 19 to 1.
LNP preparations were formed by microfluidic mixing of the lipid and NA solutions using a Precision Nanosystems NanoAssemblr Spark series Instruments, according to the manufacturer's protocol.
A 3:1 ratio of aqueous to organic solvent was maintained during mixing using differential flow rates. […] After this initial dialysis, each individual LNP preparation was characterized via dynamic light scattering (DLS) to measure size and polydispersity. pKa of a subpopulation of LNP preparations was measured via TNS assay. […]
Age-matched mice were also used to administer vehicle (1×PBS) via tail vein injection as a control. […] Base editing was determined by performing targeted deep sequencing analysis at the human ALAS1 target site using extracted genomic DNA. […]

[2] = LNP encapsulation efficiency, unlysed vs lysed LNPs, Qubit kit (Example 1 LNPs); type: physicochemical; conditions: LNPs prepared according to Example 1; total lipid to NA mass ratio 11.7
Method: Concentration of NA was determined by Qubit microRNA kit (for siRNA) or HS RNA kit (for mRNA) per manufacturer's instructions. Encapsulation efficiency was determined by measuring nucleic acid concentration in unlysed and lysed LNPs. Encapsulation efficiency was determined by measuring unlysed and lysed LNPs.

[3] = LNP hydrodynamic diameter and polydispersity by DLS (Example 1 LNPs); type: physicochemical; conditions: LNPs prepared according to Example 1, total lipid to NA mass ratio 11.7
Method: LNPs were prepared with a total lipid to NA mass ratio of 11.7. LNPs were formed by microfluidic mixing of the lipid and NA solutions using a Precision Nanosystems NanoAssemblr Spark or Benchtop series Instruments, according to the manufacturers protocol. A ratio of aqueous to organic solvent of approximately 2:1 or 3:1 was maintained during mixing using differential flow rates. After mixing, LNPs were collected, diluted in PBS (approximately 1:1 v/v). Further buffer exchange was conducted using dialysis in PBS at 4° C. for 4 to 24 hours against a 20 kDa filter. After this initial dialysis, each individual LNP preparation was characterized via dynamic light scattering (DLS) to measure the size (e.g., diameter) and polydispersity. In addition, pKa of a subpopulation of LNPs was measured via a 2-(p-toluidino)-6-napthalene sulfonic acid (TNS) assay. LNPs falling within specific diameter and polydispersity ranges are pooled, and further dialyzed against phosphate buffer saline (PBS) at 4° C. for 1 to 4 hours against a 100 kDa dialysis cassette. After the second dialysis, LNPs were sterile filtered using […] filter and stored at 4° C. for further use.
DLS-LNP hydrodynamic diameter and polydispersity index (PDI) were measured using high throughput dynamic light scattering (DLS) (DynaPro plate reader II, Wyatt). LNPs were diluted 1×PBS to an appropriate concentration and analyzed.
Lipid nanoparticle components were dissolved in 100% ethanol at specified lipid component molar ratios. Nucleic acid (NA) cargo was dissolved in 10 mM citrate, 100 mM NaCl, pH 4.0, resulting in a concentration of NA cargo of approximately 0.22 mg/mL. In some embodiments, NA cargos included both a functional NA and a reporter DNA barcode mixed at mass ratios of 1:10 to 10:1 functional NA to barcode. LNPs were formulated with a total lipid to NA mass ratio of 11.7. LNPs were formed by microfluidic mixing of the lipid and NA solutions using a Precision Nanosystems NanoAssemblr Spark or Benchtop series Instruments, according to the manufacturer's protocol. A 2:1 or 3:1 ratio of aqueous to organic solvent was maintained during mixing using differential flow rates. After mixing, LNPs were collected, diluted in PBS (approximately 1:1 v/v), and further buffer exchange was conducted using dialysis in PBS at 4° C. for 8 to 24 hours against a 20 kDa filter. After this initial dialysis, each individual LNP formulation was characterized via DLS to measure the size and polydispersity, and the pKa of a subpopulation of LNPs is measured via TNS assay. After dialysis, LNPs were sterile filtered using 0.22 micron sterile filter and stored at 4° C. for further use.
LNP hydrodynamic diameter and polydispersity index (PDI) were measured using high throughput dynamic light scattering (DLS) (DynaPro plate reader II, Wyatt). LNPs were diluted 1×PBS to an appropriate concentration and analyzed.

[4] = LNP hydrodynamic diameter and PDI by DLS (Example 16 LNPs, Stunner); type: physicochemical; conditions: Example 16 LNPs: 47.5% Ionizable Lipid: 40% cholesterol: 2.5% PEG-2000 DMG: 10% DPSC, N/P 4-8
Method: (§1) LNPs were prepared with 47.5% Ionizable Lipid (e.g., a compound provided herein): 40% cholesterol: 2.5% PEG-2000 DMG: 10% DPSC and an N/P ratio range of 4-8. LNPs were formed by microfluidic mixing of the lipid and NA solutions using a Precision Nanosystems NanoAssemblr Spark or Benchtop series Instruments, according to the manufacturer's protocol. A ratio of aqueous to organic solvent of approximately 2:1 or 3:1 was maintained during mixing using differential flow rates. After mixing, LNPs were collected, diluted in phosphate buffer saline (PBS) or Tris-buffered saline (TBS) (approximately 1:1 v/v). Further buffer exchange was conducted using dialysis in PBS or TBS at 4° C. for 4 to 24 hours against a 20 kDa filter. After this initial dialysis, each individual LNP preparation was characterized via dynamic light scattering (DLS) to measure the size (e.g., diameter) and polydispersity. LNPs falling within specific diameter and polydispersity ranges were pooled, and further dialyzed against PBS or TBS at 4° C. for 1 to 4 hours against a 100 kDa dialysis cassette. After the second dialysis, LNPs were sterile filtered using 0.22 μm filter and stored at 4° C. for further use.
LNP hydrodynamic diameter and polydispersity index (PDI) were measured using high throughput dynamic light scattering (DLS) (Stunner, Unchained Labs). LNPs were diluted 1×TBS or PBS to an appropriate concentration and analyzed.

[5] = LNP encapsulation efficiency by Ribogreen assay (Example 16 LNPs); type: physicochemical; conditions: Example 16 LNPs: 47.5% Ionizable Lipid: 40% cholesterol: 2.5% PEG-2000 DMG: 10% DPSC, N/P 4-8
Method: as §1
RNA concentration and encapsulation efficiency were determined by Ribogreen assay (BioTek Synergy LX plate reader).

## CC/C=C\CCCCOC(CCC(=O)OCCCCCCCN(CCO)CCCN(CCCCCCCOC(=O)CCC(OCCCC/C=C\CC)OCCCC/C=C\CC)CCCCCCCOC(=O)CCC(OCCCC/C=C\CC)OCCCC/C=C\CC)OCCCC/C=C\CC [Example 7-2]
[1]
  base editing in bulk bone marrow: 2.2%
[2]
  Mean Encapsulation Efficiency: 96.8%
[3]
  Mean Diameter: 96.1 nm
  Mean PDI: 10.9%

## CC/C=C\CCCCOC(CCC(=O)OCCCCCCN(CCO)CCCN(CCCCCCCCCOC(=O)C(CCCC)CCCCCC)CCCCCCCCCOC(=O)C(CCCC)CCCCCC)OCCCC/C=C\CC (stereo not shown) [Example 7-8]
[2]
  Mean Encapsulation Efficiency: 85.4%
[4]
  Mean Diameter: 91.0 nm
  Mean PDI: 0.11
[3]
  Mean Diameter: 165.2 nm
  Mean PDI: 19.3%
[5]
  Mean Encapsulation Efficiency: 61.1%

## CC/C=C\CCCCOC(CCC(=O)OCCCCCCN(CCCCCCOC(=O)CCC(OCCCC/C=C\CC)OCCCC/C=C\CC)CCN(CCO)CCCCCCCC(=O)OCCCCCCCCC)OCCCC/C=C\CC [Example 7-12, ((2-((2-hydroxyethyl)(8-(nonyloxy)-8-oxooctyl)amino)ethyl)azanediyl)bis(hexane-6,1-diyl) bis(4,4-bis(((Z)-oct-5-en-1-yl)oxy)butanoate)]
[2]
  Mean Encapsulation Efficiency: 94.7%
[4]
  Mean Diameter: 74.4 nm
  Mean PDI: 0.11
[3]
  Mean Diameter: 89.3 nm
  Mean PDI: 14.9%
[5]
  Mean Encapsulation Efficiency: 76.5%

## CC/C=C\CCCCOC(CCC(=O)OCCCCCCCN(CCCCCCCOC(=O)CCC(OCCCC/C=C\CC)OCCCC/C=C\CC)CCN(CCO)CCCCCCCC(=O)OCCCCCCCCC)OCCCC/C=C\CC [Example 7-13, ((2-((2-hydroxyethyl)(8-(nonyloxy)-8-oxooctyl)amino)ethyl)azanediyl)bis(heptane-7,1-diyl) bis(4,4-bis(((Z)-oct-5-en-1-yl)oxy)butanoate)]
[2]
  Mean Encapsulation Efficiency: 95.9%
[4]
  Mean Diameter: 86.2 nm
  Mean PDI: 0.10
[3]
  Mean Diameter: 93.7 nm
  Mean PDI: 14.3%
[5]
  Mean Encapsulation Efficiency: 75.4%

## CC/C=C\CCCCOC(CCC(=O)OCCCCCCN(CCO)CCN(CCCCCCCCCOC(=O)C(CCCC)CCCCCC)CCCCCCCCCOC(=O)C(CCCC)CCCCCC)OCCCC/C=C\CC (stereo not shown) [Example 7-15]
[2]
  Mean Encapsulation Efficiency: 95.6%
[4]
  Mean Diameter: 77.3 nm
  Mean PDI: 0.10
[3]
  Mean Diameter: 77.9 nm
  Mean PDI: 9.2%
[5]
  Mean Encapsulation Efficiency: 70.1%

## CC/C=C\CCCCOC(CCC(=O)OCCCCCCCN(CCCCCCCOC(=O)CCC(OCCCC/C=C\CC)OCCCC/C=C\CC)CCN(CCCO)CCCCCCCC(=O)OCCCCCCCCC)OCCCC/C=C\CC [Example 7-19, ((2-((3-hydroxypropyl)(8-(nonyloxy)-8-oxooctyl)amino)ethyl)azanediyl)bis(heptane-7,1-diyl) bis(4,4-bis(((Z)-oct-5-en-1-yl)oxy)butanoate)]
[2]
  Mean Encapsulation Efficiency: 92.9%
[4]
  Mean Diameter: 90.6 nm
  Mean PDI: 0.13
[3]
  Mean Diameter: 100.8 nm
  Mean PDI: 13.2%
[5]
  Mean Encapsulation Efficiency: 70.0%
